Data from ChEMBL document CHEMBL4014275, “Discovery of benzofuran-3(2H)-one derivatives as novel DRAK2 inhibitors that protect islet β-cells from apoptosis” (Eur J Med Chem, 2017).

Assays:
[1] = molecular target: T1, Serine/threonine-protein kinase 17B (Homo sapiens, UniProt O94768); test: Inhibition of DRAK2 (unknown origin)
T1 sequence (O94768 whole entry): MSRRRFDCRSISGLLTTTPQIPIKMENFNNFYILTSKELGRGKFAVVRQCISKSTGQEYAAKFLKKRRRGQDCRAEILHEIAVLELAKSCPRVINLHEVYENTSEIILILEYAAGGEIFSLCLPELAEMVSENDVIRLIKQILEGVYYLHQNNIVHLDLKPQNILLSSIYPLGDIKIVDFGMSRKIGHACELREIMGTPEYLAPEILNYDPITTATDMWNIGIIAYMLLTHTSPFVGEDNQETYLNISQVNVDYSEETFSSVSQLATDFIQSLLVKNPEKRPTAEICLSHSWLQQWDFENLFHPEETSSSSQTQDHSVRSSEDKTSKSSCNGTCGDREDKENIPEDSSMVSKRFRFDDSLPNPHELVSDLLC

[2] = molecular target: T2, Serine/threonine-protein kinase 17A (Homo sapiens, UniProt Q9UEE5); test: Binding affinity to DRAK1 (unknown origin)
T2 sequence (Q9UEE5 whole entry): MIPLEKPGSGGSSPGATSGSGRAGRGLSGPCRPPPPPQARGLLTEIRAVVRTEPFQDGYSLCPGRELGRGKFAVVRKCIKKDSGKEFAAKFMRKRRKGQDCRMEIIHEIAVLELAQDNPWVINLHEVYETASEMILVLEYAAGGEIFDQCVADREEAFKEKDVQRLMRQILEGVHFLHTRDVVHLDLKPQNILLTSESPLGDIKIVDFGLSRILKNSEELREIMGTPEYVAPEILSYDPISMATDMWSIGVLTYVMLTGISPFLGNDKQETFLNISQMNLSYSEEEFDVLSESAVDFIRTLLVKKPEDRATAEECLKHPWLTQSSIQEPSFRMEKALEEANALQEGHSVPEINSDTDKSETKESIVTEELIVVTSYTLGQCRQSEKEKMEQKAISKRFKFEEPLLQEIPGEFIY

[3] = molecular target: Death-associated protein kinase 1 (Homo sapiens, UniProt P53355); test: Binding affinity to DAPK1 (unknown origin)
Sequence of Death-associated protein kinase 1 (P53355 whole entry): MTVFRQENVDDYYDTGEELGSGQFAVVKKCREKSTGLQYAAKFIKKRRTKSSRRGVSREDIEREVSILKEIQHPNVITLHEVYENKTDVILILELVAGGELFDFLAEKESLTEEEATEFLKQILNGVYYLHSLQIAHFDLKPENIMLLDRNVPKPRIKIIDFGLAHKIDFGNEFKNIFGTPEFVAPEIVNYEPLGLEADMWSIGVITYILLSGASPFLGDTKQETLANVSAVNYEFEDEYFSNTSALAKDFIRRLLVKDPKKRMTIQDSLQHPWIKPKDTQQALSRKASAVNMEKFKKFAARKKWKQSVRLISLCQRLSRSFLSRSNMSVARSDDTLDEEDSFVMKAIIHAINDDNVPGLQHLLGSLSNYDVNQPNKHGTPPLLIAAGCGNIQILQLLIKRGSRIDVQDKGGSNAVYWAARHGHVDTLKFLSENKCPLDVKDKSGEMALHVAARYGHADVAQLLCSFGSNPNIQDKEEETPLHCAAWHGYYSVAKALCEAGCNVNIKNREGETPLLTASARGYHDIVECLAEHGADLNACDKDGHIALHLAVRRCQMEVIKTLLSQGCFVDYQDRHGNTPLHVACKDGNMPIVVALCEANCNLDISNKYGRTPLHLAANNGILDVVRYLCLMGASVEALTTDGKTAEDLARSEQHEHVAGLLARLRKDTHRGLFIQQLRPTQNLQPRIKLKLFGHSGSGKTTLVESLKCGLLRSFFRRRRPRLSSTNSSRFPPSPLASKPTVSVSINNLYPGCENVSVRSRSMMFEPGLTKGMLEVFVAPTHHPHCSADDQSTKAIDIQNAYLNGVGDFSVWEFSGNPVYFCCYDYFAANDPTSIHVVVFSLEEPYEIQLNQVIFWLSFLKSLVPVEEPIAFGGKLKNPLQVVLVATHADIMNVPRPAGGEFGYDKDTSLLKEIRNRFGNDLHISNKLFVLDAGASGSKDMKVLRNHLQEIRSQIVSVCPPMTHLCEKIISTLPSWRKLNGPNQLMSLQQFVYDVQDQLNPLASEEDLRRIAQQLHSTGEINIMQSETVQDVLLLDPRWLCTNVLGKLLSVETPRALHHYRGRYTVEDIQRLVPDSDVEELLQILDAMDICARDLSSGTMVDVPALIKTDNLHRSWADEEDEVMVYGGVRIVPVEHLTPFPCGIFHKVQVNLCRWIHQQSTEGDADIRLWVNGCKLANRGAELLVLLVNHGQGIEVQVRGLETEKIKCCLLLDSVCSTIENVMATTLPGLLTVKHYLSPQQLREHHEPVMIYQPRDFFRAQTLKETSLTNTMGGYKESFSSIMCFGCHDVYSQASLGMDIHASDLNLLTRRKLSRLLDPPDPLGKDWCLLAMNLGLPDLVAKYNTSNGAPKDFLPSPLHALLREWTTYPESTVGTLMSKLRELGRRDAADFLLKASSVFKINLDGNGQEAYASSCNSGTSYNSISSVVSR

[4] = molecular target: T1, Serine/threonine-protein kinase 17B; test: Inhibition of recombinant GST-tagged DRAK2 (unknown origin) autophosphorylation after 2 hrs by ADP-glo assay
[5] = molecular target: T2, Serine/threonine-protein kinase 17A; test: Inhibition of human DRAK1
[6] = molecular target: Death-associated protein kinase 2 (Homo sapiens, UniProt Q9UIK4); test: Inhibition of human DAPK2
Sequence of Death-associated protein kinase 2 (Q9UIK4 whole entry): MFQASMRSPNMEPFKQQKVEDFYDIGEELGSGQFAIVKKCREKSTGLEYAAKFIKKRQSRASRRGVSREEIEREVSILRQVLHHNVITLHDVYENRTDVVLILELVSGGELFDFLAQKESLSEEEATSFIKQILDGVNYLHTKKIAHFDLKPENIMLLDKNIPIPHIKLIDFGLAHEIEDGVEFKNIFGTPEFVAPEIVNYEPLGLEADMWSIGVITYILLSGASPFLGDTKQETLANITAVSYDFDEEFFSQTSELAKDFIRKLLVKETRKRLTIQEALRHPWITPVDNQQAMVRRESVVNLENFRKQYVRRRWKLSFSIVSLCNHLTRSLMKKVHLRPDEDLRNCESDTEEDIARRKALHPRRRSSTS

[7] = molecular target: Death-associated protein kinase 3 (Homo sapiens, UniProt O43293); test: Inhibition of human DAPK3
Sequence of Death-associated protein kinase 3 (O43293 whole entry): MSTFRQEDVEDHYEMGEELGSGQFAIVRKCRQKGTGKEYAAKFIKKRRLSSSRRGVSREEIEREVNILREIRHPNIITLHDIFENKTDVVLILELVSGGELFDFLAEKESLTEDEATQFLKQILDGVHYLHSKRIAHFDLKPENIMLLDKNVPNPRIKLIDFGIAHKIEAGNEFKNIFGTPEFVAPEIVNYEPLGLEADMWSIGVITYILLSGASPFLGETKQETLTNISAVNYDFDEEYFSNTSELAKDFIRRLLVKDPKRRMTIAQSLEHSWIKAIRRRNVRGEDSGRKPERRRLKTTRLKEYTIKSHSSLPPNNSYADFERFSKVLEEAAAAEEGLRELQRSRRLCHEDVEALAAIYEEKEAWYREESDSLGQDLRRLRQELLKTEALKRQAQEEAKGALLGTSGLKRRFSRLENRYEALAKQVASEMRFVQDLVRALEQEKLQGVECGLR

[8] = molecular target: Tyrosine-protein kinase Blk (Homo sapiens, UniProt P51451); test: Inhibition of human BLK
Sequence of Tyrosine-protein kinase Blk (P51451 whole entry): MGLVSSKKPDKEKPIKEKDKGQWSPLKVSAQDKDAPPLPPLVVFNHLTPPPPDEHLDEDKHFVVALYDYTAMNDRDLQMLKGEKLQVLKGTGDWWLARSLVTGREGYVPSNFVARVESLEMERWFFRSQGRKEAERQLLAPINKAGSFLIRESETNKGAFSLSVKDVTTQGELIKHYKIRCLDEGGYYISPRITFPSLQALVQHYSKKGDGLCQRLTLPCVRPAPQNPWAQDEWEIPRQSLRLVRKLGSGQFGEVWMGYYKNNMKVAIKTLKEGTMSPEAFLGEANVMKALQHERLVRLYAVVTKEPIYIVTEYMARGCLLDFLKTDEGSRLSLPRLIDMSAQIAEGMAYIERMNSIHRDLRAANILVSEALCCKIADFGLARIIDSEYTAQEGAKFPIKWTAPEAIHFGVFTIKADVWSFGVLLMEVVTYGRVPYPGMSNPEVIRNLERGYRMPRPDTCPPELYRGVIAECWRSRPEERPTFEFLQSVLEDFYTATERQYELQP

[9] = molecular target: T3, Aurora kinase A (Homo sapiens, UniProt O14965); test: Inhibition of human AURORA-A
T3 sequence (O14965 whole entry): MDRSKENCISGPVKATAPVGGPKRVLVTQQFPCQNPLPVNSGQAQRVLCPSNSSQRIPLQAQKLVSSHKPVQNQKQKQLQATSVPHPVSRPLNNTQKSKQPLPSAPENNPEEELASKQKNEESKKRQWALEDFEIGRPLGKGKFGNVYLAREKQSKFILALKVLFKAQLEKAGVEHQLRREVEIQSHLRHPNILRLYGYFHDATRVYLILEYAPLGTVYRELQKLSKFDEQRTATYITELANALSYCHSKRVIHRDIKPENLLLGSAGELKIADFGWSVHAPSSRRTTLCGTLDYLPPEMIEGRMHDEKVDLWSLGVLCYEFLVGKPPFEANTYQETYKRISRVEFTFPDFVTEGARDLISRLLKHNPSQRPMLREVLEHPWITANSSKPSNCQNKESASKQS

[10] = molecular target: Tyrosine-protein kinase BTK (Homo sapiens, UniProt Q06187); test: Inhibition of human BTK
Sequence of Tyrosine-protein kinase BTK (Q06187 whole entry): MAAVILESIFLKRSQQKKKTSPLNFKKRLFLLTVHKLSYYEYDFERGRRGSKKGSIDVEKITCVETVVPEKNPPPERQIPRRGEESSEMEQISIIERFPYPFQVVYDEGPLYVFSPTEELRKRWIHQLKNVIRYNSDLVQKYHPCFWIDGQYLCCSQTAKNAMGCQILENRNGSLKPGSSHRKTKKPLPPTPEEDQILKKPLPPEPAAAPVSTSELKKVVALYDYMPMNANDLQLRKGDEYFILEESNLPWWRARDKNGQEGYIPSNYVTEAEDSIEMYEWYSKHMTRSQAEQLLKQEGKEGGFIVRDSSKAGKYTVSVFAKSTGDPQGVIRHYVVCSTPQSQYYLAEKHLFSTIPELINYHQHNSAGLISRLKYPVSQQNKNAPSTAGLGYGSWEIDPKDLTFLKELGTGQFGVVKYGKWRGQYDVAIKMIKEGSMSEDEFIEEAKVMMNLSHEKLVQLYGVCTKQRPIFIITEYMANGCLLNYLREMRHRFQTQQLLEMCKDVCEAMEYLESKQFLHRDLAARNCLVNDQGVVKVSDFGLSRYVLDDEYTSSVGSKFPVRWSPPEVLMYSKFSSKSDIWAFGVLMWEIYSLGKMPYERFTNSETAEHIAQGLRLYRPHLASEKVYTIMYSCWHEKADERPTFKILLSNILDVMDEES

[11] = molecular target: T4, Inhibitor of nuclear factor kappa-B kinase subunit beta (Homo sapiens, UniProt O14920); test: Inhibition of human IKKB
T4 sequence (O14920 whole entry): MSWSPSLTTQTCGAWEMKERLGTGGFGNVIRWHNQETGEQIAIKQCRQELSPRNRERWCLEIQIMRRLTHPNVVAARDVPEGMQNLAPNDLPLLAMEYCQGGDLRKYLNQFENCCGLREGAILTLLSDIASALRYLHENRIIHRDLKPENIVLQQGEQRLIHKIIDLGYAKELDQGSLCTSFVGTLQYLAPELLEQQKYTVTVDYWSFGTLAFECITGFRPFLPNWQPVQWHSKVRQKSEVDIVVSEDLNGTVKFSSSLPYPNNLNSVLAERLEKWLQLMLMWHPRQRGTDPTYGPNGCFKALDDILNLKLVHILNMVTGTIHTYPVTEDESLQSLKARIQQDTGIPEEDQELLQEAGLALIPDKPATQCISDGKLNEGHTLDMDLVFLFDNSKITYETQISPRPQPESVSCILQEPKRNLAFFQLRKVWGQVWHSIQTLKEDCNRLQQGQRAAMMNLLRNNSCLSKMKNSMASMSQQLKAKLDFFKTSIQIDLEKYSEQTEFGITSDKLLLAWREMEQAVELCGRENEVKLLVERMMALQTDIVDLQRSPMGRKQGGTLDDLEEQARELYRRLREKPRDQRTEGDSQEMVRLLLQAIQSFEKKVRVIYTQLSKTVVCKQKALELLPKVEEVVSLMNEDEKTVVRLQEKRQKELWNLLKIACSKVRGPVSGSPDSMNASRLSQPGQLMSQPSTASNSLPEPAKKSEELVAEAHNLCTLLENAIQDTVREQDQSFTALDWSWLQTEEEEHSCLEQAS

[12] = molecular target: Glycogen synthase kinase-3 beta (Homo sapiens, UniProt P49841); test: Inhibition of human GSK3beta
Sequence of Glycogen synthase kinase-3 beta (P49841 whole entry): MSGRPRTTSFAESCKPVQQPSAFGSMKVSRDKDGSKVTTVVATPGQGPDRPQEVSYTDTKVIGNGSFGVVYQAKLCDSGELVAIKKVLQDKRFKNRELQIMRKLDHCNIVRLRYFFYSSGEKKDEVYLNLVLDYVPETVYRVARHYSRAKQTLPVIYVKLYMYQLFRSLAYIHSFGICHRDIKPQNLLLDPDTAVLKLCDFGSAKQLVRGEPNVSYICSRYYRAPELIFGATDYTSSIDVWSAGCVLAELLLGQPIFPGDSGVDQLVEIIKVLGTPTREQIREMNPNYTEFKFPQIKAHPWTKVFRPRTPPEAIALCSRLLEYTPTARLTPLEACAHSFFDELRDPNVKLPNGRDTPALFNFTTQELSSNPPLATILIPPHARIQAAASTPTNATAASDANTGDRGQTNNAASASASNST

| Compound | IC50 [1] [µM] | Kd [2] [µM] | Kd [3] [µM] | IC50 [4] [µM] | IC50 [5] [µM] | IC50 [6] [µM] | IC50 [7] [µM] | IC50 [8] [µM] | IC50 [9] [µM] | IC50 [10] [µM] | IC50 [11] [µM] | IC50 [12] [µM] |
| --- | --- | --- | --- | --- | --- | --- | --- | --- | --- | --- | --- | --- |
| Nc1c(-c2n[nH]c(=S)o2)sc2ncc(-c3ccsc3)cc12 | 0.029 | 0.099 | 0.054 |  |  |  |  |  |  |  |  |  |
| CCOc1cc(/C=C2\Oc3ccc(OC)cc3C2=O)ccc1O |  |  |  | 0.33 | 1.41 | 22.7 | 18.9 | 5.26 | 9.92 | 5 | 6.23 | 5.01 |
